From patent publication US4021553A, “5,6-Diaryl-1,2,4-triazines as topically-active anti-inflammatory agents” (Eli Lilly and Company, priority 1976, dated 1977)

System: erythemic response (ultraviolet-induced erythema)
Experiment: UV-induced erythemic response inhibition in guinea pigs, topical (modification of the method of Winder)
Format: in vivo, Albino guinea pigs
Details: dose 100 mcg./12 cm.^2, in ethanol, weighted scores 1.0-2.5 hours
Procedure: A modification of the method of Winder was used to measure the anti-inflammatory activities of the compounds employed in the method of the present invention; see C. V. Winder, et al., Arch. Int. Pharmacodyn., 116, 261 (1958). Albino guinea pigs of either sex, weighing 225-300 grams, were shaved on the back and chemically depilated (Nair® Lotion Hair Remover, Carter Products, N.Y., N.Y.) 18-20 hours before exposure to ultraviolet light. The animals, in groups of four and bearing identifying ear tags, were treated by applying to an area of skin of about 12 cm.^2 a solution of test compound dissolved in 0.1 cc. of ethanol. The control treatment consisted of administering only the drug vehicle, ethanol, to a group of four animals. Groups of four animals each were given different treatment levels of test compound to obtain dose responses. Random order and blind administration of the test compounds were employed; drug idenfication was not made until after all animals were graded. Immediately prior to drug application, the animals were exposed in groups of four to a high-intensity ultraviolet light for a measured period of time (usually 4-7 seconds). The ultraviolet light source, a Hanovia Lamp (Kroymayer-Model 10), was placed in contact with the skin of the animal's back. A gummed notebook paper reinforcement was affixed to the lamp lens to provide an unexposed area of contrast for grading the erythema. Beginning one hour after exposure and thereafter at half-hour intervals for another 1 1/2 hours, the degree of resulting erythema was graded by an arbiturary scoring system based upon the degree of contrast and redness formed. […]
Total scores from each treatment group of four guinea pigs were prepared to the control treatment, and the percent inhibition was calculated as follows: [formula]
A dose-response graph was obtained by plotting dose versus percent inhibition, the points representing the average of each treatment group of four guinea pigs. […] The plotted or calculated ED50 for the particular compound tested, where available, is given in the last column of Table I.

SMILES | % Inhibition compared with control (erythemic response) [%]
COc1ccc(-c2nnc(SC(C)C)nc2-c2ccc(OC)cc2)cc1 [CH(CH3)2 S 1 OCH3 OCH3, 3-isopropylthio-5,6-bis(4-methoxyphenyl)-1,2,4-triazine] | 35
COc1ccc(-c2ncnnc2-c2ccc(OC)cc2)cc1 [H -- -- OCH3 OCH3, 5,6-bis(4-methoxyphenyl)-1,2,4-triazine] | 53
COc1ccc(-c2nnc(SCc3ccccc3)nc2-c2ccc(OC)cc2)cc1 [CH2 C6 H5 S 1 OCH3 OCH3, 3-benzylthio-5,6-bis(4-methoxyphenyl)-1,2,4-triazine] | 49
